The source of these data is paper PMC7324980, “A novel bacterial β-N-acetyl glucosaminidase from Chitinolyticbacter meiyuanensis possessing transglycosylation and reverse hydrolysis activities” (Biotechnology for Biofuels, 2020).

The target in this assay is T1, CmNAGase (Chitinolyticbacter meiyuanensis, UniProt A0A7D5C7R1).
T1 construct: full length, 836 residues (2508 bp), no signal peptide predicted, C-terminal His6-tag, pET-28a(+), E. coli BL21(DE3), 92 kDa; native peptides […], […], […]; catalytic D508, E509
In words: pNP release at […] nm, Lineweaver-Burk. In kind it is biochemical. As to conditions: 50 mM sodium citrate, pH 5.4, 40 °C, 50-1000 μM substrate.

T1 sequence (A0A7D5C7R1 entry or part of it): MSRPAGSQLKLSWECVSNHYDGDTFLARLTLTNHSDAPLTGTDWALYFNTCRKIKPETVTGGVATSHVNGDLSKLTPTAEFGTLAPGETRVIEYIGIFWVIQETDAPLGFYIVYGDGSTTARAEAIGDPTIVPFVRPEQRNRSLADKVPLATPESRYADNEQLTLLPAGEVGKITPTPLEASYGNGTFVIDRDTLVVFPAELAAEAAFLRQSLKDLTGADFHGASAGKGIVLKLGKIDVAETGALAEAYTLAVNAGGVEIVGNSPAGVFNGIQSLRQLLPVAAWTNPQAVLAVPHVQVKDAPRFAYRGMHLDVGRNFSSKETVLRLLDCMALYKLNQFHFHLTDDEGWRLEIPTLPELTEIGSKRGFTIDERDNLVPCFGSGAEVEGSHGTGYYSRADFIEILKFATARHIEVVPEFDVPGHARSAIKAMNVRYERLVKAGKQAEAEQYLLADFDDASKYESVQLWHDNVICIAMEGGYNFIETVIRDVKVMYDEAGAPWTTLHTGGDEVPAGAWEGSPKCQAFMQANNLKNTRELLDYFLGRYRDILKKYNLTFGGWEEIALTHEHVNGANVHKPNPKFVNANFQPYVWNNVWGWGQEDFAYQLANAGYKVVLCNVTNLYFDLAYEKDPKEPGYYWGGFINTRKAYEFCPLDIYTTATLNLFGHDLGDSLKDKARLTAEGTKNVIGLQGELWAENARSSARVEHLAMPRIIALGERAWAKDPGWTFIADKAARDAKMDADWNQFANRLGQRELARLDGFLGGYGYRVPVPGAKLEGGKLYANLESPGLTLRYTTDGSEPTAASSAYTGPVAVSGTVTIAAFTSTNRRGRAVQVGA

Usually Km stands for the substrate concentration at which the rate is half of its maximum. For the compound `CC(=O)N[C@H]1[C@H](Oc2ccc([N+](=O)[O-])cc2)O[C@H](CO)[C@@H](O)[C@@H]1O` [pNP-GlcNAc], the Km came to 0.5 µmol/mL.
